The text below walks through data of PubChem BioAssay AID334 (DTP/NCI, 2004).

The experiment concerns CD2F1 mice, intracerebral P388 leukemia, median survival T/C%. The experiment in a line: NCI In Vivo Anticancer Drug Screen. Data for tumor model P388 Leukemia (intracerebral) in CD2F1 (CDF1) mice. Particulars: endpoint: median survival time, higher = longer survival. As for the experimental part: The antitumor activity of compounds was measured in mice bearing transplantable tumors. Survival or tumor size were measured and the results are expressed as the measurement made in the treated group (T) divided by the measurement made in the vehicle treated control group (C). The tumor model used in this assay is P388 Leukemia (intracerebral) in CD2F1 (CDF1) mice

Setting [1] is: dose: 100.0 mg/kg/injection, schedule: Q01DX009 (ip), vehicle: saline with Tween-80.

Where “and” joins values, the source holds several entries; their conditions need not be identical. Equal entries are not always repeated. Inconclusive results and toxic doses are left out.

Take `CCCCCc1cc(O)c2c(c1)OC(C)(C)[C@@H]1CCC(C)=C[C@@H]21`: the T/C reads like this: (dose: 2.75 mg/kg/injection, schedule: Q01DX005 (iv), vehicle: other) 105 % of control; (dose: 5.5 mg/kg/injection, schedule: Q01DX005 (iv), vehicle: other) 101 % of control; (dose: 11.0 mg/kg/injection, schedule: Q01DX005 (iv), vehicle: other) 103 % of control; (dose: 22.0 mg/kg/injection, schedule: Q01DX005 (iv), vehicle: other) 104 % of control; (dose: 44.0 mg/kg/injection, schedule: Q01DX005 (iv), vehicle: other) 101 % of control.

In the case of `CO[C@H]1C[C@@H]2CC[C@@H](C)[C@@](O)(O2)C(=O)C(=O)N2CCCC[C@H]2C(=O)O[C@H]([C@H](C)C[C@@H]2CC[C@@H](O)[C@H](OC)C2)CC(=O)[C@H](C)C=C(C)[C@@H](O)[C@@H](OC)C(=O)[C@H](C)C[C@H](C)/C=C/C=C/C=C1C`, the T/C (dose: 400.0 mg/kg/injection, schedule: Q01DX009 (ip), vehicle: gum acacia) is 107 % of control.

For `COc1cc2c(c3c1c(=O)c1ccccc1n3C)C=CC(C)(C)O2`, the T/C runs as follows: (dose: 128.0 mg/kg/injection, schedule: Q01DX005 (ip), vehicle: Klucel (hydroxypropylcellulose) (HPC)) 107 % of control; (dose: 256.0 mg/kg/injection, schedule: Q01DX005 (ip), vehicle: Klucel (hydroxypropylcellulose) (HPC)) 112 % of control; (dose: 512.0 mg/kg/injection, schedule: Q01DX005 (ip), vehicle: Klucel (hydroxypropylcellulose) (HPC)) 113 % of control.

In the case of `O=[N+]([O-])O.[Ga]`, the T/C (dose: 32.0 mg/kg/injection, schedule: Q01DX005 (ip), vehicle: saline) was 111 % of control; the T/C (dose: 64.0 mg/kg/injection, schedule: Q01DX005 (ip), vehicle: saline) is 111 % of control; the T/C (dose: 128.0 mg/kg/injection, schedule: Q01DX005 (ip), vehicle: saline) is 104 % of control.

As for `CC1(C)N=C(N)N=C(N)N1c1ccc(CCC(=O)Nc2ccc(S(=O)(=O)F)cc2)c(Cl)c1`, the T/C (dose: 6.25 mg/kg/injection, schedule: Q01DX009 (ip), vehicle: saline) is 100 % of control; the T/C (dose: 12.5 mg/kg/injection, schedule: Q01DX009 (ip), vehicle: saline) was 111 % of control; the T/C (dose: 25.0 mg/kg/injection, schedule: Q01DX009 (ip), vehicle: saline) is 105 % of control; the T/C (dose: 50.0 mg/kg/injection, schedule: Q01DX009 (ip), vehicle: saline) is 105 % of control.

With `O=NN(CCCl)C(=O)NC1CCC(=O)NC1=O` (configuration not stated), the T/C by setting is: (dose: 3.0 mg/kg/injection, schedule: Q01DX009 (ip), vehicle: saline with Tween-80) 221 % of control; (dose: 4.0 mg/kg/injection, schedule: Q01DX001 (ip), vehicle: saline) 114 % of control; (dose: 4.0 mg/kg/injection, schedule: Q01DX009 (ip), vehicle: saline with Tween-80) 242 % of control; (dose: 6.0 mg/kg/injection, schedule: Q01DX009 (ip), vehicle: saline with Tween-80) 250 % of control; (dose: 8.0 mg/kg/injection, schedule: Q01DX001 (ip), vehicle: saline) 156 % of control; (dose: 16.0 mg/kg/injection, schedule: Q01DX001 (ip), vehicle: saline) 212 % of control. The T/C runs as follows: (dose: 32.0 mg/kg/injection, schedule: Q01DX001 (ip), vehicle: saline) 262 % of control; (dose: 64.0 mg/kg/injection, schedule: Q01DX001 (ip), vehicle: saline) 212 % of control.

On to `Cc1cnc(/C=N\NC(N)=S)c2cccc(N)c12`, for which the T/C by setting is: (dose: 12.5 mg/kg/injection, schedule: Q01DX009 (ip), vehicle: saline with Tween-80) 99 % of control; (dose: 25.0 mg/kg/injection, schedule: Q01DX009 (ip), vehicle: saline with Tween-80) 102 % of control; (dose: 50.0 mg/kg/injection, schedule: Q01DX009 (ip), vehicle: saline with Tween-80) 104 % of control; under setting [1], 98 % of control.

Consider `CN(Cc1cnc2nc(N)nc(N)c2n1)c1ccc(C(=O)N[C@@H](CCC(=O)O)C(=O)O)cc1`, for which the T/C was 110 % of control (dose: 0.38 mg/kg/injection, schedule: Q01DX009 (ip), vehicle: olive oil, sesame oil, peanut oil); 110 % of control (dose: 0.38 mg/kg/injection, schedule: Q01DX009 (ip), vehicle: saline); 112 % of control (dose: 0.75 mg/kg/injection, schedule: Q01DX009 (ip), vehicle: sodium bicarbonate); 123 % of control and 106 % of control (dose: 0.75 mg/kg/injection, schedule: Q01DX009 (ip), vehicle: suspension in saline); 105 % of control (dose: 1.2 mg/kg/injection, schedule: Q04DX003 (ip), vehicle: saline); 112 % of control (dose: 1.5 mg/kg/injection, schedule: Q01DX009 (ip), vehicle: sodium bicarbonate). The T/C (dose: 1.5 mg/kg/injection, schedule: Q01DX009 (ip), vehicle: suspension in saline) was 96 % of control and 100 % of control; the T/C (dose: 2.3 mg/kg/injection, schedule: Q01DX009 (ip), vehicle: sodium bicarbonate) is 112 % of control; the T/C (dose: 2.3 mg/kg/injection, schedule: Q01DX009 (ip), vehicle: suspension in saline) was 113 % of control and 103 % of control; the T/C (dose: 2.3 mg/kg/injection, schedule: Q04DX003 (ip), vehicle: saline) was 100 % of control; the T/C (dose: 3.4 mg/kg/injection, schedule: Q01DX009 (ip), vehicle: sodium bicarbonate) is 116 % of control; the T/C (dose: 3.4 mg/kg/injection, schedule: Q01DX009 (ip), vehicle: suspension in saline) is 120 % of control and 122 % of control. Also, the T/C by setting is: (dose: 4.6 mg/kg/injection, schedule: Q04DX003 (ip), vehicle: saline) 110 % of control; (dose: 9.2 mg/kg/injection, schedule: Q04DX003 (ip), vehicle: saline) 100 % of control; (dose: 18.4 mg/kg/injection, schedule: Q04DX003 (ip), vehicle: saline) 115 % of control; (dose: 36.8 mg/kg/injection, schedule: Q04DX003 (ip), vehicle: saline) 95 % of control.

As to `CCCCCCCCCCCCCCCCCC(=O)NC(CC(=O)OCCCCCC)c1ccc(N(CCCl)CCCl)cc1` (configuration not stated), the T/C (dose: 2.15 mg/kg/injection, schedule: Q03HX008 (ip), vehicle: saline) is 105 % of control; the T/C (dose: 4.3 mg/kg/injection, schedule: Q03HX008 (ip), vehicle: saline) is 105 % of control; the T/C (dose: 8.6 mg/kg/injection, schedule: Q03HX008 (ip), vehicle: saline) was 105 % of control; the T/C (dose: 69.0 mg/kg/injection, schedule: Q03HX008 (ip), vehicle: saline) is 152 % of control; the T/C (dose: 275.0 mg/kg/injection, schedule: Q03HX008 (ip), vehicle: saline) was 121 % of control.

With `Cc1cn(C2CC(O)C(CO)O2)c(=O)[nH]c1=O` (configuration not stated), the T/C is, setting by setting: under setting [1], 98 % of control and 104 % of control; (dose: 100.0 mg/kg/injection, schedule: Q01DX009 (ip), vehicle: saline) 93 % of control and 102 % of control; (dose: 200.0 mg/kg/injection, schedule: Q01DX009 (ip), vehicle: saline with Tween-80) 108 % of control and 109 % of control; (dose: 200.0 mg/kg/injection, schedule: Q01DX009 (ip), vehicle: saline) 97 % of control and 109 % of control; (dose: 400.0 mg/kg/injection, schedule: Q01DX009 (ip), vehicle: saline with Tween-80) 101 % of control and 109 % of control; (dose: 400.0 mg/kg/injection, schedule: Q01DX009 (ip), vehicle: saline) 94 % of control and 111 % of control. The T/C runs as follows: (dose: 800.0 mg/kg/injection, schedule: Q01DX009 (ip), vehicle: saline with Tween-80) 114 % of control and 111 % of control; (dose: 800.0 mg/kg/injection, schedule: Q01DX009 (ip), vehicle: saline) 104 % of control and 105 % of control; (dose: 1600.0 mg/kg/injection, schedule: Q01DX009 (ip), vehicle: saline with Tween-80) 93 % of control and 101 % of control.

As for `C[C@]12C=CC(=O)C=C1CC[C@@H]1[C@@H]2C(=O)C[C@@]2(C)[C@H]1CC[C@]2(O)C(=O)CO`, the T/C is 95 % of control and 99 % of control (dose: 8.0 mg/kg/injection, schedule: Q01DX009 (ip), vehicle: Klucel (hydroxypropylcellulose) (HPC)); 100 % of control and 104 % of control (dose: 16.0 mg/kg/injection, schedule: Q01DX009 (ip), vehicle: Klucel (hydroxypropylcellulose) (HPC)); 98 % of control and 102 % of control (dose: 32.0 mg/kg/injection, schedule: Q01DX009 (ip), vehicle: Klucel (hydroxypropylcellulose) (HPC)); 99 % of control and 104 % of control (dose: 64.0 mg/kg/injection, schedule: Q01DX009 (ip), vehicle: Klucel (hydroxypropylcellulose) (HPC)); 95 % of control and 102 % of control (dose: 128.0 mg/kg/injection, schedule: Q01DX009 (ip), vehicle: Klucel (hydroxypropylcellulose) (HPC)); 102 % of control and 104 % of control (dose: 256.0 mg/kg/injection, schedule: Q01DX009 (ip), vehicle: Klucel (hydroxypropylcellulose) (HPC)). Where the note is “dose: 512.0 mg/kg/injection, schedule: Q01DX009 (ip), vehicle: Klucel (hydroxypropylcellulose) (HPC)”, the T/C was 95 % of control and 99 % of control.

Regarding `CCN(C)N=Nc1ccc(C(N)=O)cc1`, the T/C by setting is: (dose: 25.0 mg/kg/injection, schedule: Q01DX009 (ip), vehicle: Klucel (hydroxypropylcellulose) (HPC)) 101 % of control; (dose: 100.0 mg/kg/injection, schedule: Q01DX009 (ip), vehicle: Klucel (hydroxypropylcellulose) (HPC)) 154 % of control.
